In patent US8962810B2, “Macrocyclic heterocyclic compound for inhibiting hepatitis C virus and preparation and use thereof” (AB Pharma Ltd., priority 2011, dated 2015) one finds IC50 data, which are given here for 35 compounds.

T1 sequence (P27958 1658-1711): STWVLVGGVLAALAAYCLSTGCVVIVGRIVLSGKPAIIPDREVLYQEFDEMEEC
T1 sequence (P27958 1027-1657): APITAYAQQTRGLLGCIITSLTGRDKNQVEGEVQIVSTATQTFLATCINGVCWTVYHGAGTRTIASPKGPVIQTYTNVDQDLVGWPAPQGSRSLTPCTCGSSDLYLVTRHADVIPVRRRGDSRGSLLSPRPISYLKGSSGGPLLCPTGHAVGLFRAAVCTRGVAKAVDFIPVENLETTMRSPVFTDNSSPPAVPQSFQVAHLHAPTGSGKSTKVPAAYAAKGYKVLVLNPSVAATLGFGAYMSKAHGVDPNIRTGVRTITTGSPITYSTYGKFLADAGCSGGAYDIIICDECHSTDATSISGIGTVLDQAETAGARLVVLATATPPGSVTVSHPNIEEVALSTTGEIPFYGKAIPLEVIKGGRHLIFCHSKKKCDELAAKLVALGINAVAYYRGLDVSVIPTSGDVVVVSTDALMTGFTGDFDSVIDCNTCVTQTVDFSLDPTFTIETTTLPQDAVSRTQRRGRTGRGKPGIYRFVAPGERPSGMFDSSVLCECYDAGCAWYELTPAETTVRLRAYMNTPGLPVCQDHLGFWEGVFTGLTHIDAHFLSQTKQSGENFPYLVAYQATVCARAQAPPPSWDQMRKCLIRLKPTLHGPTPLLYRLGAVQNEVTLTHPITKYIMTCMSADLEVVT

The assay addresses T1, HCV Protease (HCV NS3-4A) (Hepatitis C virus genotype 1a, UniProt P27958).
T1 construct: HCV Protease: HCV NS3-4A, self-prepared; made in house
Kind of assay: HCV Protease (HCV NS3-4A) anti-activity assay, fluorescence quenching (FRET). It is filed as biochemical. As for the experimental part:
Method of HCV Protease (HCV NS3-4A) Anti-Activity Assay:
HCV Protease (HCV NS3/4A) anti-activity was measured by an inter fluorescence quenching system. EDANS group and DABCYL group were bonded on each side of a peptide. When protein cleavage started, fluorescence quenching of EDANS by DABCYL was detected. We used a high throughput screening model for HCV NS3/4A protease inhibitors, the tested drugs were prepared with 5 different concentrations, positive control and negative control were set in the same time. In the optimized reaction system, fluorescence were determined at ex=355, em=520 by a Polarstar fluorescence detector. Calculate the inhibition rate of each concentration; calculate the half maximal inhibitory concentration (IC50) with the method of Reed-Muench.
Materials: HCV Protease: HCV NS3-4A, self-prepared, stored at −70. HCV Protease substrate (FRET-S): Ac-Asp-Glu-Asp(EDANS)-Glu-Glu-Abu-ψ-[COO]-Ala-Ser-Lys-(DABCYL)-NH2, supplied by AnaSpec USA, prepared of 100 μM by DMSO, distributed and stored at −20 without light. Buffer solution: 30 mM NaCl, 5 mM CaCl2, 10 mM DTT, 50 mM Tris (pH7.8).
Instrument: fluorescence detector Polarstar from Germany Company BMG
Preparation and operation: preparation of 10 mg/mL by DMSO, dilute of 10000, 2000, 400, 80, 16 ng/mL as tested concentrations by buffer solutions, adding 20 μL into each well, the total reaction system is 200 μL, to make the final concentrations of 1000, 200, 40, 8, 1.6 ng/mL. Add 140 μL buffer solution, 20 μL drug solution, 20 μL HCV protease, and 20 μL FRET-S substrate with final concentration of 0.25 μM into 96-well fluorescence microtiterplate, the reaction started at 37, set control wells of protease-substrate reaction and of isolate substrate and isolate protease, fluorescence signals were detected by fluorescence detector (ex=355,em=520). Calculate the inhibition rates of samples for each concentration by comparison of fluorescence value of sample in each well and the fluorescence control value of enzyme, calculate the half maximal inhibitory concentration (IC50) of samples to HCV protease with the method of Reed-Muench.
THF and Et2O were distilled from sodium metal and benzophenone. DCM, pentane and hexane were distilled form calcium hydride. Special raw materials and intermediates in the invention were supplied by Zannan SciTech Co. for ordered processing, Ltd. in Shanghai, others reagents were purchased from Shanghai reagent company, Aldrich, Acros etc. If intermediates or products of synthesis were not enough for the next step of reaction, the synthesis shall be repeated until it is sufficient. The HCV protease (HCV NS3-4A) inhibitory activity assays in the present invention were performed by relevant cooperation service units of China Institutes for Biological Science in Beijing.
`CC[C@H]1C[C@@]1(NC(=O)C1C[C@@H]2CN1C(=O)[C@H](C(C)(C)C)NC(=O)OCC1(CCCCCOc3cccc4c3CN(C4)C(=O)O2)CC1)C(=O)NS(=O)(=O)C1CC1` (some centres unmarked) [Compound 15a] yielded an IC50 of 0.1 to 5 nM.

`C=CC1CC1(NC(=O)C1CC2CN1C(=O)C(C(C)(C)C)NC(=O)OCCCCCCOc1cccc3c1CN(C3)C(=O)O2)C(=O)NS(=O)(=O)C1CC1` (centres unmarked) [Compound 15aa] came in with an IC50 of 0.1 to 5 nM.

Consider `C=C[C@H]1C[C@@]1(NC(=O)C1C[C@@H]2CN1C(=O)[C@H](C(C)(C)C)NC(=O)OCCCCCCCOc1cccc3c1CN(C3)C(=O)O2)C(=O)NS(=O)(=O)C1CC1` (some centres unmarked) [Compound 15ab], for which the IC50 fell in the range of 0.1 to 5 nM.

In turn, `C=CC1CC1(NC(=O)C1CC2CN1C(=O)C(C(C)(C)C)NC(=O)OCCCCCCCCOc1cccc3c1CN(C3)C(=O)O2)C(=O)NS(=O)(=O)C1CC1` (centres unmarked) [Compound 15ac] yielded an IC50 of 0.1 to 5 nM.

Compound `C=C[C@H]1C[C@@]1(NC(=O)C1C[C@@H]2CN1C(=O)[C@H](C(C)(C)C)NC(=O)OCC/C=C/COc1cccc3c1CN(C3)C(=O)O2)C(=O)NS(=O)(=O)C1CC1` (some centres unmarked) [Compound 15ad] came in with an IC50 of 0.1 to 5 nM.

`CC[C@H]1C[C@@]1(NC(=O)C1C[C@@H]2CN1C(=O)[C@H](C(C)(C)C)NC(=O)OCC/C=C/COc1cccc3c1CN(C3)C(=O)O2)C(=O)NS(=O)(=O)C1CC1` (some centres unmarked) [Compound 15ae] had an IC50 of 0.1 to 5 nM.

For `C=C[C@H]1C[C@@]1(NC(=O)C1C[C@@H]2CN1C(=O)[C@H](C(C)(C)C)NC(=O)OCCCCCOc1cccc3c1CN(C3)C(=O)O2)C(=O)NS(=O)(=O)C1CC1` (some centres unmarked) [Compound 15af], the IC50 lay within 0.1 to 5 nM.

Consider `CC[C@H]1C[C@@]1(NC(=O)C1C[C@@H]2CN1C(=O)[C@H](C(C)(C)C)NC(=O)OCCCCCOc1cccc3c1CN(C3)C(=O)O2)C(=O)NS(=O)(=O)C1CC1` (some centres unmarked) [Compound 15ag], for which the IC50 is 0.1 to 5 nM.

Regarding `C=C[C@H]1C[C@@]1(NC(=O)C1C[C@@H]2CN1C(=O)[C@H](C(C)(C)C)NC(=O)OCC(C)(C)OC/C=C/COc1cccc3c1CN(C3)C(=O)O2)C(=O)NS(=O)(=O)C1CC1` (some centres unmarked) [Compound 15ah], the IC50 was 0.1 to 5 nM.

Regarding `CC[C@H]1C[C@@]1(NC(=O)C1C[C@@H]2CN1C(=O)[C@H](C(C)(C)C)NC(=O)OCC(C)(C)OC/C=C/COc1cccc3c1CN(C3)C(=O)O2)C(=O)NS(=O)(=O)C1CC1` (some centres unmarked) [Compound 15aj], the IC50 was in the range of 0.1 to 5 nM.

In turn, `C=C[C@H]1C[C@@]1(NC(=O)C1C[C@@H]2CN1C(=O)[C@H](C(C)(C)C)NC(=O)OCC(C)(C)OCCCCOc1cccc3c1CN(C3)C(=O)O2)C(=O)NS(=O)(=O)C1CC1` (some centres unmarked) [Compound 15ak] registered an IC50 of 0.1 to 5 nM.

Turning to `CC[C@H]1C[C@@]1(NC(=O)C1C[C@@H]2CN1C(=O)[C@H](C(C)(C)C)NC(=O)OCC(C)(C)OCCCCOc1cccc3c1CN(C3)C(=O)O2)C(=O)NS(=O)(=O)C1CC1` (some centres unmarked) [Compound 15am], the IC50 was 0.1 to 5 nM.

`C=C[C@H]1C[C@@]1(NC(=O)C1C[C@@H]2CN1C(=O)[C@H](C(C)(C)C)NC(=O)OCCC/C=C/CCOc1cccc3c1CN(C3)C(=O)O2)C(=O)NS(=O)(=O)C1CC1` (some centres unmarked) [Compound 15an]: the IC50 lay in the range of 0.1 to 5 nM.

Compound `CC[C@H]1C[C@@]1(NC(=O)C1C[C@@H]2CN1C(=O)[C@H](C(C)(C)C)NC(=O)OCCC/C=C/CCOc1cccc3c1CN(C3)C(=O)O2)C(=O)NS(=O)(=O)C1CC1` (some centres unmarked) [Compound 15ap] yielded an IC50 of 0.1 to 5 nM.

With `C=C[C@H]1C[C@@]1(NC(=O)C1C[C@@H]2CN1C(=O)[C@H](C(C)(C)C)NC(=O)OCC(C)(C)C/C=C/COc1cccc3c1CN(C3)C(=O)O2)C(=O)NS(=O)(=O)C1CC1` (some centres unmarked) [Compound 15aq], the IC50 fell in the range of 0.1 to 5 nM.

`CC[C@H]1C[C@@]1(NC(=O)C1C[C@@H]2CN1C(=O)[C@H](C(C)(C)C)NC(=O)OCC(C)(C)C/C=C/COc1cccc3c1CN(C3)C(=O)O2)C(=O)NS(=O)(=O)C1CC1` (some centres unmarked) [Compound 15ar] displayed an IC50 of 0.1 to 5 nM.

`C=C[C@H]1C[C@@]1(NC(=O)C1C[C@@H]2CN1C(=O)[C@H](C(C)(C)C)NC(=O)OCC(C)(C)CCCCOc1cccc3c1CN(C3)C(=O)O2)C(=O)NS(=O)(=O)C1CC1` (some centres unmarked) [Compound 15as] returned an IC50 of 0.1 to 5 nM.

For the compound `C=CC1CC1(NC(=O)C1CC2CN1C(=O)C(C(C)(C)C)NC(=O)OCC(C)(C)CCCCCOc1cccc3c1CN(C3)C(=O)O2)C(=O)NS(=O)(=O)C1CC1` (centres unmarked) [Compound 15at], the 50% inhibitory concentration (IC50) lay within 0.1 to 5 nM.

As for `C=C[C@H]1C[C@@]1(NC(=O)C1C[C@@H]2CN1C(=O)[C@H](C(C)(C)C)NC(=O)OCC(C)(C)CC/C=C/COc1cccc3c1CN(C3)C(=O)O2)C(=O)NS(=O)(=O)C1CC1` (some centres unmarked) [Compound 15au], the IC50 lay in the range of 0.1 to 5 nM.

For the compound `CC[C@H]1C[C@@]1(NC(=O)C1C[C@@H]2CN1C(=O)[C@H](C(C)(C)C)NC(=O)OCC(C)(C)CCCCCOCc1cccc3c1CN(C3)C(=O)O2)C(=O)NS(=O)(=O)C1CC1` (some centres unmarked) [Compound 15av], the IC50 fell in the range of 5.1 to 50 nM.

The compound `CC[C@H]1C[C@@]1(NC(=O)C1C[C@@H]2CN1C(=O)[C@H](C(C)(C)C)NC(=O)OCCCCCCOCc1cccc3c1CN(C3)C(=O)O2)C(=O)NS(=O)(=O)C1CC1` (some centres unmarked) [Compound 15aw] gave a 50% inhibitory concentration (IC50) of 5.1 to 50 nM.

The compound `CC[C@H]1C[C@@]1(NC(=O)C1C[C@@H]2CN1C(=O)[C@H](C(C)(C)C)NC(=O)OCC(C)(C)CCCCOc1ccc(Cl)c3c1CN(C3)C(=O)O2)C(=O)NS(=O)(=O)C1CC1` (some centres unmarked) [Compound 15ax] registered an IC50 of 0.1 to 5 nM.

`CC[C@H]1C[C@@]1(NC(=O)C1C[C@@H]2CN1C(=O)[C@H](C(C)(C)C)NC(=O)OCC1(CC/C=C/COc3cccc4c3CN(C4)C(=O)O2)CC1)C(=O)NS(=O)(=O)C1CC1` (some centres unmarked) [Compound 15b]: the IC50 was 0.1 to 5 nM.

`CC[C@H]1C[C@@]1(NC(=O)C1C[C@@H]2CN1C(=O)[C@H](C(C)(C)C)NC(=O)OCC(F)(F)CCCCOc1cccc3c1CN(C3)C(=O)O2)C(=O)NS(=O)(=O)C1CC1` (some centres unmarked) [Compound 15ba] showed an IC50 of 0.1 to 5 nM.

As to `CC[C@H]1C[C@@]1(NC(=O)C1C[C@@H]2CN1C(=O)[C@H](C(C)(C)C)NC(=O)OCCCCCCNC(=O)c1cccc3c1CN(C3)C(=O)O2)C(=O)NS(=O)(=O)C1CC1` (some centres unmarked) [Compound 15bb], the IC50 was 5.1 to 50 nM.

As for `CC[C@H]1C[C@@]1(NC(=O)C1C[C@@H]2CN1C(=O)[C@H](C(C)(C)C)NC(=O)OCC(C)(C)CCCCNC(=O)c1cccc3c1CN(C3)C(=O)O2)C(=O)NS(=O)(=O)C1CC1` (some centres unmarked) [Compound 15bc], the IC50 is 51 to 300 nM.

Consider `CCC1CC1(NC(=O)C1CC2CN1C(=O)C(C(C)(C)C)NC(=O)OCC(C)(C)CCCCCNC(=O)c1cccc3c1CN(C3)C(=O)O2)C(=O)NS(=O)(=O)C1CC1` (centres unmarked) [Compound 15bd], for which the IC50 was 51 to 300 nM.

For the compound `CC[C@H]1C[C@@]1(NC(=O)C1C[C@@H]2CN1C(=O)[C@H](C(C)(C)C)NC(=O)OCCCCCCCOc1ccc3c(c1)CN(C3)C(=O)O2)C(=O)NS(=O)(=O)C1CC1` (some centres unmarked) [Compound 15be], the IC50 lay in the range of 0.1 to 5 nM.

In turn, `C=C[C@H]1C[C@@]1(NC(=O)C1C[C@@H]2CN1C(=O)[C@H](C(C)(C)C)NC(=O)OCCCCCCCOc1ccc3c(c1)CN(C3)C(=O)O2)C(=O)NS(=O)(=O)C1CC1` (some centres unmarked) [Compound 15bf] yielded an IC50 of 0.1 to 5 nM.

On to `CC[C@H]1C[C@@]1(NC(=O)C1C[C@@H]2CN1C(=O)[C@H](C(C)(C)C)NC(=O)OCCCC/C=C/COc1ccc3c(c1)CN(C3)C(=O)O2)C(=O)NS(=O)(=O)C1CC1` (some centres unmarked) [Compound 15bg], for which the IC50 is 0.1 to 5 nM.

Compound `C=C[C@H]1C[C@@]1(NC(=O)C1C[C@@H]2CN1C(=O)[C@H](C(C)(C)C)NC(=O)OCCCC/C=C/COc1ccc3c(c1)CN(C3)C(=O)O2)C(=O)NS(=O)(=O)C1CC1` (some centres unmarked) [Compound 15bh] registered a half-inhibitory concentration (IC50) of 0.1 to 5 nM.

For the compound `C=CC1CC1(NC(=O)C1CC2CN1C(=O)C(C(C)(C)C)NC(=O)OCCCC=CCOc1ccc3c(c1)CN(C3)C(=O)O2)C(=O)NS(=O)(=O)C1CC1` (centres unmarked) [Compound 15bj], the IC50 fell in the range of 0.1 to 5 nM.

`CCC1CC1(NC(=O)C1CC2CN1C(=O)C(C(C)(C)C)NC(=O)OCCCC=CCOc1ccc3c(c1)CN(C3)C(=O)O2)C(=O)NS(=O)(=O)C1CC1` (centres unmarked) [Compound 15bk] had an IC50 of 5.1 to 50 nM.

In turn, `C=C[C@H]1C[C@@]1(NC(=O)C1C[C@@H]2CN1C(=O)[C@H](C(C)(C)C)NC(=O)OCC/C=C/COc1ccc3c(c1)CN(C3)C(=O)O2)C(=O)NS(=O)(=O)C1CC1` (some centres unmarked) [Compound 15bm] had an IC50 of 51 to 300 nM.

For the compound `C=C[C@H]1C[C@@]1(NC(=O)C1C[C@@H]2CN1C(=O)[C@H](C(C)(C)C)NC(=O)OCC(C)(C)CCCCCOc1ccc3c(c1)CN(C3)C(=O)O2)C(=O)NS(=O)(=O)C1CC1` (some centres unmarked) [Compound 15bn], the IC50 was in the range of 0.1 to 5 nM.
